Test results: PMC12154426, “TPP-Based Nanovesicles Kill MDR Neuroblastoma Cells and Induce Moderate ROS Increase, While Exerting Low Toxicity Towards Primary Cell Cultures: An In Vitro Study” (International Journal of Molecular Sciences, 2025)
Read-outs that look alike come from different tables or passages of the source.

Key:
[1] = tested on: HTLA ER; assay: MTS cell viability assay on HTLA ER NB cells; type: cell-based, human; settings: for HTLA ER more tolerant to BPPB than HTLA 230: from IC50
Description: In this section, the strong anticancer effect of BPPB against ETO-sensitive HTLA 230 and multidrug-resistant (MDR) HTLA ER neuroblastoma (NB) cells previously reported was confirmed. Cell viability in HTLA 230 and HTLA ER cells exposed to increasing concentrations of BPPB for 24, 48, and 72 h was assessed by using the MTS essay, which is an efficient, eco- and user-friendly tool, commonly used to investigate the behaviour of cancer cells when exposed to specific treatments and how these treatments influence their growth and viability.
Following this, µM concentrations (x) were transformed in Log10 (x) (Figure 1e (HTLA 230) and Figure 1f (HTLA ER), traces with indicators and error bar). The nonlinear regression models of the Log10 (BPPB concentrations) vs. the normalized response (Hill Slope) shown in Figure 1e (HTLA 230) and Figure 1f (HTLA ER), traces without indicators, elaborated by GraphPad Prism software version 8.0.1 (GraphPad Software, Boston, MA, USA), gave us the IC50 values of BPPB for both cell populations at 24, 48, and 72 h of treatment.
HTLA 230 is a MYCN-amplified human stage-IV NB cell line, obtained from the G. Gaslini Institute, Genoa, Italy. The cytogenetic features of the HTLA 230 cell line include […] MYCN amplification, del(11)t(11;Y), balanced translocation t(1;17)(p36;q21), and dup(11p), which were previously described by Pezzolo et al.. Cells were periodically tested for mycoplasma contamination (Mycoplasma Reagent Set, Aurogene s.p.a, Pavia, Italy). After thawing and eight passages in the culture, cell morphology and proliferation were analyzed. […] Both cell populations were cultured in RPMI 1640 (Euroclone SpA, Pavia, Italy) supplemented with 10% fetal bovine serum (FBS; Euroclone, Pavia, Italy), 2 mM glutamine (Euroclone, Pavia, Italy), 1% penicillin/streptomycin (Euroclone, Pavia, Italy), 1% sodium pyruvate (Sigma-Aldrich, Sant Louis, MO, USA), and 1% amino acid solution (Sigma).
To determine the cytotoxic effects of BPPB, in vitro time- and dose-dependent experiments were carried out, as recently described. Briefly, cells were treated for 24, 48, and 72 h, with increasing concentrations (0.1–2.0 µM) of the compound. […] Cell cultures were carefully monitored before and during the experiments to ensure optimal cell density.
Cell viability was determined by using the CellTiter 96® AQueous One Solution Cell Proliferation MTS Assay (Promega, Madison, WI, USA), as previously described. MTS is a colorimetric method commonly used for determining cell viability. The cell survival rate, expressed as the cell viability percentage (%), was evaluated based on the experimental outputs of treated cells vs. the untreated ones (CTRs), and was calculated as follows: cell viability (%) = (OD treated cells − OD blank)/(OD untreated cells − OD blank) × 100%. IC50 values were calculated by GraphPad Prism 8.0.1 Software (GraphPad Software v8.0, San Diego, CA, USA), as detailed in the Results and Discussion in Section 2.

[2] = tested on: HTLA ER; assay: DCFH assay of ROS (H2O2) production, HTLA ER; type: cell-based, human
Source text: It has been reported that the administration of TPP-based compounds, including TPP-based bola amphiphilic nanovesicles such as BPPB, induce ROS overproduction, thus causing oxidative stress (OS), which has been widely reported to be involved in the anticancer effect of several chemotherapeutic drugs, including etoposide, doxorubicin [38], and cisplatin [39]. […] On the contrary, the role of ROS was scarcely present in PLX-resistant CMM cells exposed to the same concentrations of BPPB [13]. With these considerations, we evaluated ROS levels also in NB cells treated with BPPB, since this experiment would have been particularly helpful to understand whether (i) these nanovesicles’ preparation exerts its cytotoxic action on HTLA 230 and ER cells through ROS production, as in PLX-sensitive CMM cells; or (ii) the resistance acquired by HTLA ER based on high levels of antioxidants, following chronic treatment with etoposide, conferred resistance also to a preparation based on the use of nanovesicles (BPPBs). Moreover, the evaluation of ROS levels can be an indirect method to ascertain and confirm the presence of apoptosis, since as reported, low levels of ROS induce apoptosis and high levels induce necrosis.Therefore, to investigate the pro-oxidant action of BPPB also in HTLA 230 and HTLA ER NB cells, ROS levels were evaluated in both NB cell populations exposed for 24–72 h to increasing concentrations (0.1–2 µM) of BPPB using the DCFH essay (Figure 4). The results were reported as a percentage of cells positive to DCFH normalized for protein content. Raw fluorescence data are, in fact, not applicable since an increase in fluorescence could be due to a high number of cells but also to an increased production of H2O2 induced by the treatments. This is the reason why it is necessary to normalize the fluorescence data to the protein content. Other cellular assays measuring oxidative damage, including lipid peroxidation or protein carbonylation, are likely too complex for low-tier early hazard assessment or hazard screening. Conversely, the cellular DCFH assay is a simpler and widely used alternative, which measures intracellular ROS production by forming a fluorescent product (DCF) upon oxidation by free radicals produced by cells.
The production of H2O2 was evaluated using 2′-7′-dichlorofluorescein-diacetate (DCFH-DA; Merk Life Science S.r.l. Milan, Italy), as previously reported. Briefly, NB cells (10^4 cells/well) were seeded in 96-well plates (Corning) and treated. Then, cells were stained with 2′-7′ di-chloro-fluorescein-diacetate (DCFH-DA; Sigma-Aldrich) and incubated with 90% DMSO for an additional 10 min in the dark. The generated fluorescence intensity was monitored with a Perkin Elmer fluorometer (Perkin Elmer Life and Analytical Sciences, Shelton, WA, USA) at 485/530 nm excitation/emission. Values were normalized to the protein content.

## c1ccc([P+](CCCCCCCCCCCC[P+](c2ccccc2)(c2ccccc2)c2ccccc2)(c2ccccc2)c2ccccc2)cc1 [BPPB, 1,1-(1,12-dodecanediyl)-bis-[1,1,1]-triphenyl phosphonium di-bromide]
[1]; 1.25 µM, 24 h
  cell viability: 42.5%
[1]; 1.25 µM, 72 h
  cell viability: 39.8%
[1]; 1.5 µM, 48 h
  cell viability: 39.4%
[1]; 2 µM, 24 h
  cell viability: 26.5%
[1]; 2 µM, 48 h
  cell viability: 33.1%
[1]; 2 µM, 72 h
  cell viability: 25.8%
[1]; 24 h
  concentration causing significant reduction in viability of cells: ≥ 0.75 µM
  HTLA ER more tolerant to BPPB than HTLA 230: 1.3 times
[1]; 24 h exposure, 0.1–2 µM, read-out: IC50 HTLA ER
  IC50: 1240 ± 61 nM
[1]; 48 h
  concentration causing significant reduction in viability of cells: ≥ 0.75 µM
  HTLA ER more tolerant to BPPB than HTLA 230: 2.9 times
[1]; 48 h exposure, 0.1–2 µM, read-out: IC50 HTLA ER
  IC50: 1350 ± 52 nM
[1]; 72 h
  concentration causing significant reduction in viability of cells: ≥ 1.00 µM
  HTLA ER more tolerant to BPPB than HTLA 230: 3.1 times
[1]; 72 h exposure, 0.1–2 µM, read-out: IC50 HTLA ER
  IC50: 1200 ± 69.5 nM
[1]; HTLA ER, 24 h, ETO value ref 16
  IC50 lower than that determined with ETO: 478 fold
[1]; over 24, 48, 72 h exposure, read-out: IC50 on MDR HTLA ER
  IC50: 1200 to 1350 nM
[2]; 24 h
  concentration significantly inducing ROS overproduction: 1.25 µM
  concentrations that did not induce significant changes in ROS levels: ≤ 1 µM
[2]; 24 h, normalized for protein content, control = 1
  highest value of DCFH-positive cells: 4.92
[2]; 24 h exposure
  increase in ROS with respect to the control: > 4 times
[2]; 48 h
  concentrations that did not induce significant changes in ROS levels: ≤ 1.25 µM
[2]; 48 h, normalized for protein content, control = 1
  highest value of DCFH-positive cells: 3.67
[2]; 72 h
  concentrations that did not induce significant changes in ROS levels: ≤ 0.75 µM
  maximal DCFH value in HTLA ER lower than in HTLA 230: 1.16 times
[2]; 72 h, normalized for protein content, control = 1
  maximal value of DCFH-positive cells: 4.99
